Source: patent US20030139443A1, “Use of tachykinin antagonists, including NK-1 receptor antagonists, to modify unwanted behavior in dogs, cats and horses” (priority 2001, published 2003)

Assays:
Format in all cases: in vivo, dog
[1] = test system: Adult dogs, separation behavior; test: Example 3: behavior scores in dogs after ten consecutive oral doses of compound of Formula 2 vs. placebo, cross-over; settings: 5 mg/kg oral BID, 10 doses
Description: Adult dogs received ten consecutive oral doses of a compound of Formula 2 at 5 mg/kg BID or placebo in a cross-over design and effects on behavior were determined beginning one-hour post-dose.
Appropriate amounts of the compound of Formula 2 were weighed and placed in capsules. Capsules were back-filled with dextrose.
Capsules were administered by placing them in the back of the throat and allowing the dogs to swallow. On the day of behavior testing, dogs were fasting at dosing.
Dogs were divided equally into two treatment groups. Treatment Group 1 received 10 consecutive oral doses of the compound of Formula 2 BID at 5 mg/kg and Treatment Group 2 received 10 consecutive oral dextrose placebos BID. At the conclusion of the first half of the study, the protocol was repeated and dogs in Treatment Group 1 received 10 consecutive oral dextrose placebos BID and dogs in Treatment Group 2 received 10 consecutive oral doses of the compound of Formula 2 BID at 5 mg/kg.
Dogs began compound dosing at 1830 and continued for 10 consecutive BID doses. The final dose (dose #10) occurred the morning of testing, one hour prior to the start. Dogs were tested in three 15-minute testing phases in which behavior was scored every 5 minutes. Dogs were videotaped during the testing period.

[2] = test system: Adult dogs with spontaneous anxiety to isolation and/or unfamiliar humans; test: Example 1: anxiety behaviors of dogs during 15-minute separation phase, compound of Formula 1 vs. placebo, double-blind crossover; settings: for Hyperactivity Mean, Geometric Mean Time / Vocalization Mean, Geometric Mean Time: 0.1 mg/kg SC once daily, Separation Phase, vs. placebo
Description: To evaluate the anxiolytic effects of a compound of Formula 1 vs. placebo after seven and twenty-one days of parenteral dosing at 0.1 mg/kg SID, the following procedure was followed.
Adult dogs with spontaneous anxiety to isolation and/or unfamiliar humans were treated for twenty-one consecutive days with the compound of Formula 1 or a placebo control. Dogs were tested after seven and twenty-one days of dosing. “Day 0” was used to identify the initial day of dosing. The study was conducted using a double-blind crossover design. Treatment periods were 21 days in duration, with a 28 day washout period between treatments. Dogs were randomly assigned to treatment groups such that those receiving compound at the first replicate received placebo on the second replicate. The placebo treatments served as the negative control.
All study participants were blinded to treatment groups. The compound of Formula 1 was administered at a dose of 0.1 mg/kg. The volume of vehicle control used for the placebo treatments was equivalent to the calculated volume of test compound that would have been administered had the animal been receiving drug. All test articles were administered by subcutaneous injection once daily.
On the day of testing, each dog was placed in a cage in an isolated room for 15 minutes. A hidden observer timed any anxious behavior. Animals were tested on dosing day 6 and day 20, starting 2 hours after the dose of the day.
Abnormal anxiety behaviors were studied. Observations were made on two different anxiety behaviors during a 15-minute separation phase. These behaviors are vocalization (barking, crying, growling) and hyperactivity (jumping, pacing, circling).

[3] = test system: dogs, anxiety associated with separation and with novel sight and sound stimuli; test: Example 2: canine anxiety model, separation phase and stimulation phase, various dosages of compound of Formula 1
Description: The present invention also concerns a method for testing compounds for anxiolytic effect in dogs. The model is designed to induce separation anxiety as well as anxiety due to novel visual and auditory stimuli. To determine whether a test compound has an anxiolytic effect in dogs, separation anxiety and anxiety associated with novel sight and sound stimuli are measured both with and without administration of the test compound. In one preferred embodiment, observations are made on five different anxiety behaviors during a 15-minute separation phase and a 15-minute stimulation phase. These anxiety behaviors are vocalization (barking, crying, growling); hyperactivity (jumping, pacing, circling); destruction (chewing, pawing, digging); salivation; and tremor. […] In addition to direct observation, dogs are videotaped during testing for documentation of behaviors. In one preferred embodiment, a dog is removed from a group pen and placed in an isolation cage. A tester, positioned behind a screen out of view, starts a timer for 15 minutes and a video recorder. […] At the end of the separation phase, the timer is re-set to 15 minutes and a child-size doll mounted on a remote controlled car is driven around the pen continuously. After 10 minutes, the doll and car are driven behind the screen and a child's fazer gun with a variety of sounds is continually activated for 5 minutes. At the end of the stimulation phase, the accumulated time for each behavior is recorded and the video recorder stopped. The dog is removed from the isolation cage and returned to the group pen. Preferably, a complete cross-over study design with test compound and placebo is used. Each treatment period is 21 days in length. Study “day 0” is used to designate the initial day of dosing. Anxiety testing is conducted on study days 6 and 20 within each period. Animals are allocated to treatment group, sequence, pen and evaluation order using a randomization plan. Dogs remain within the same sequence during progression of the cross-over phases of the study so that all possible treatment orders are evenly represented. Preferably, “day 0” is staggered such that 3-6 dogs are evaluated per day. Treatment administration is adjusted on testing days such that each animal is tested at the predicted Cmax for the test compound. Anxiety testing is preferably conducted between 11 AM and 4 PM to account for time-of-day variations in behavior. Animals are fed at the conclusion of testing. A three-week washout is observed between periods. Various dosages of the compound of Formula 1 were tested to determine an optimal dose. Anxiety associated with separation and with novel sight and sound stimuli was measured. Observations are made on two different anxiety behaviors during a 15-minute separation phase and a 15-minute stimulation phase. These behaviors are vocalization (barking, crying, growling) and hyperactivity (jumping, pacing, circling). […] In addition to direct observation, dogs are videotaped during testing for documentation of behaviors. The dog is removed from a group pen and placed in an isolation cage in an adjacent room. The tester, positioned behind a screen out of view, starts a timer for 15 minutes and the video recorder. […] At the end of the separation phase, the timer is re-set to 15 minutes and a child-size doll mounted on a remote controlled car is driven around the pen continuously. After 10 minutes, the doll and car are driven behind the screen and a child's fazer gun with a variety of sounds is continually activated for 5 minutes. At the end of the stimulation phase, the accumulated time for each behavior is recorded and the video recorder stopped. The dog is removed from the isolation cage and returned to the group pen.

[4] = 0.03 mg/kg, Separation, Day 6, vs. Day −1
[5] = 0.03 mg/kg, Separation, Day 20, vs. Day −1
[6] = 0.03 mg/kg, Stimulation, Day 6, vs. Day −1
[7] = 0.03 mg/kg, Stimulation, Day 20, vs. Day −1
[8] = 0.1 mg/kg, Separation Phase, Day 6, vs. placebo
[9] = 0.1 mg/kg, Separation Phase, Day 20, vs. placebo
[10] = 0.1 mg/kg, Separation, Day 6, vs. Day −1
[11] = 0.1 mg/kg, Separation, Day 20, vs. Day −1
[12] = 0.1 mg/kg, Stimulation Phase, Day 6, vs. placebo
[13] = 0.1 mg/kg, Stimulation Phase, Day 20, vs. placebo
[14] = 0.1 mg/kg, Stimulation, Day 6, vs. Day −1
[15] = 0.1 mg/kg, Stimulation, Day 20, vs. Day −1
[16] = 0.3 mg/kg, Separation, Day 6, vs. Day −1
[17] = 0.3 mg/kg, Separation, Day 20, vs. Day −1
[18] = 0.3 mg/kg, Stimulation, Day 6, vs. Day −1
[19] = 0.3 mg/kg, Stimulation, Day 20, vs. Day −1
[20] = 1 mg/kg, Separation Phase, Day 6, vs. placebo
[21] = 1 mg/kg, Separation Phase, Day 20, vs. placebo
[22] = 1 mg/kg, Stimulation Phase, Day 6, vs. placebo
[23] = 1 mg/kg, Stimulation Phase, Day 20, vs. placebo

COc1ccc(OC(F)(F)F)cc1CN[C@H]1CCCN[C@H]1c1ccccc1 [Compound of Formula 2]
Separation Hyperactivity 0-15 min, behavior score as estimated duration of time ([1]; Dog ID 70954): 2 s | Separation Vocalization 0-15 min, behavior score as estimated duration of time ([1]; Dog ID 70954): 0 s | Separation Hyperactivity 0-15 min, behavior score as estimated duration of time ([1]; Dog ID 215155): 2 s | Separation Vocalization 0-15 min, behavior score as estimated duration of time ([1]; Dog ID 215155): 12 s | Separation Hyperactivity 0-15 min, behavior score as estimated duration of time ([1]; Dog ID 219622): 30 s | Separation Vocalization 0-15 min, behavior score as estimated duration of time ([1]; Dog ID 219622): 22 s | Separation Hyperactivity 0-15 min, behavior score as estimated duration of time ([1]; Dog ID 227641): 2 s | Separation Vocalization 0-15 min, behavior score as estimated duration of time ([1]; Dog ID 227641): 2 s | Separation Hyperactivity 0-15 min, behavior score as estimated duration of time ([1]; Dog ID 234923): 2 s | Separation Vocalization 0-15 min, behavior score as estimated duration of time ([1]; Dog ID 234923): 0 s | Separation Hyperactivity 0-15 min, behavior score as estimated duration of time ([1]; Dog ID 240893): 6 s | Separation Vocalization 0-15 min, behavior score as estimated duration of time ([1]; Dog ID 240893): 0 s | Separation Hyperactivity 0-15 min, behavior score as estimated duration of time ([1]; Dog ID 2943450): 18 s | Separation Vocalization 0-15 min, behavior score as estimated duration of time ([1]; Dog ID 2943450): 30 s | Separation Hyperactivity 0-15 min, behavior score as estimated duration of time ([1]; Dog ID HIHMFU): 12 s | Separation Vocalization 0-15 min, behavior score as estimated duration of time ([1]; Dog ID HIHMFU): 0 s | Separation Hyperactivity 0-15 min, behavior score as estimated duration of time ([1]; Mean of 8 dogs): 9.25 s | Separation Vocalization 0-15 min, behavior score as estimated duration of time ([1]; Mean of 8 dogs): 8.25 s | Hyperactivity Mean, Geometric Mean Time ([2]; Day 6): 24.1 s | Vocalization Mean, Geometric Mean Time ([2]; Day 6): 29.0 s | Hyperactivity Mean, Geometric Mean Time ([2]; Day 20): 19.1 s | Vocalization Mean, Geometric Mean Time ([2]; Day 20): 25.5 s

COc1ccc(C(C)(C)C)cc1CN[C@H]1C2CCN(CC2)[C@H]1C(c1ccccc1)c1ccccc1 [Compound of Formula 1, (2S.3S) (2-Benzhydryl-1-aza-bicyclo[2.2.2]oct-3-yl)-(5-tert-butyl-2-methoxy-benzyl)-amine]
Hyperactivity Mean, Geometric Mean Time [3, 4]: 19.4 s | Vocalization Mean, Geometric Mean Time [3, 4]: 10.6 s | Hyperactivity Mean, Geometric Mean Time [3, 5]: 20.1 s | Vocalization Mean, Geometric Mean Time [3, 5]: 12.1 s | Hyperactivity Mean, Geometric Mean Time [3, 6]: 38.6 s | Vocalization Mean, Geometric Mean Time [3, 6]: 24.5 s | Hyperactivity Mean, Geometric Mean Time [3, 7]: 28.2 s | Vocalization Mean, Geometric Mean Time [3, 7]: 35.6 s | Hyperactivity Mean, Geometric Mean Time [3, 8]: 24.1 s | Vocalization Mean, Geometric Mean Time [3, 8]: 29.0 s | Hyperactivity Mean, Geometric Mean Time [3, 9]: 19.1 s | Vocalization Mean, Geometric Mean Time [3, 9]: 25.5 s | Hyperactivity Mean, Geometric Mean Time [3, 10]: 24.7 s | Vocalization Mean, Geometric Mean Time [3, 10]: 15.5 s | Hyperactivity Mean, Geometric Mean Time [3, 11]: 14.8 s | Vocalization Mean, Geometric Mean Time [3, 11]: 9.1 s | Hyperactivity Mean, Geometric Mean Time [3, 12]: 46.7 s | Vocalization Mean, Geometric Mean Time [3, 12]: 35.3 s | Hyperactivity Mean, Geometric Mean Time [3, 13]: 51.2 s | Vocalization Mean, Geometric Mean Time [3, 13]: 26.4 s | Hyperactivity Mean, Geometric Mean Time [3, 14]: 48.8 s | Vocalization Mean, Geometric Mean Time [3, 14]: 36.8 s | Hyperactivity Mean, Geometric Mean Time [3, 15]: 28.4 s | Vocalization Mean, Geometric Mean Time [3, 15]: 24.7 s | Hyperactivity Mean, Geometric Mean Time [3, 16]: 49.7 s | Vocalization Mean, Geometric Mean Time [3, 16]: 20.9 s | Hyperactivity Mean, Geometric Mean Time [3, 17]: 39.1 s | Vocalization Mean, Geometric Mean Time [3, 17]: 18.2 s | Hyperactivity Mean, Geometric Mean Time [3, 18]: 43.1 s | Vocalization Mean, Geometric Mean Time [3, 18]: 15.9 s | Hyperactivity Mean, Geometric Mean Time [3, 19]: 41.9 s | Vocalization Mean, Geometric Mean Time [3, 19]: 19.2 s | Hyperactivity Mean, Geometric Mean Time [3, 20]: 23.3 s | Vocalization Mean, Geometric Mean Time [3, 20]: 5.8 s | Hyperactivity Mean, Geometric Mean Time [3, 21]: 16.8 s | Vocalization Mean, Geometric Mean Time [3, 21]: 6.9 s | Hyperactivity Mean, Geometric Mean Time [3, 22]: 22.7 s | Vocalization Mean, Geometric Mean Time [3, 22]: 6.5 s | Hyperactivity Mean, Geometric Mean Time [3, 23]: 36.0 s | Vocalization Mean, Geometric Mean Time [3, 23]: 7.4 s | most efficacious dosage in dogs among those dosages tested ([3]; SC, dosages tested 0.03, 0.1, 0.3, 1 mg/kg): 0.1 mg/kg | effectiveness at treating vocalization and hyperactivity resulting from separation ([2]; 0.1 mg/kg SC, compared with placebo): more effective than placebo
